From patent US20130045985A1, “N-(5-FLUORO-2-((4-METHYLBENZYL)OXY)PYRIMIDIN-4-YL)BENZAMIDE DERIVATIVES” (Dow AgroSciences LLC, priority 2011, published 2013) come the findings set out here.

The subject of data set [1] is Mycosphaerella graminicola; Anamorph: Septoria tritici; Bayer Code SEPTTR. The experiment in a line: Fungicidal activity: leaf blotch of wheat (SEPTTR), one-day protectant and three-day curative. In kind it is in vivo, Septoria tritici on wheat plants (variety Yuma). The following applies: wheat plants, rating of % disease control. Here is the method: Evaluation of Fungicidal Activity: Leaf Blotch of Wheat (Mycosphaerella graminicola; Anamorph: Septoria tritici; Bayer Code SEPTTR)
Wheat plants (variety Yuma) were grown from seed in a greenhouse in 50% mineral soil/50% soil-less Metro mix until the first leaf was fully emerged, with 7-10 seedlings per pot. These plants were inoculated with an aqueous spore suspension of Septoria tritici either prior to or after fungicide treatments. After inoculation the plants were kept in 100% relative humidity (one day in a dark dew chamber followed by two to three days in a lighted dew chamber) to permit spores to germinate and infect the leaf. The plants were then transferred to a greenhouse for disease to develop.
The following table presents the activity of typical compounds of the present disclosure when evaluated in these experiments. The effectiveness of the test compounds in controlling disease was determined by assessing the severity of disease on treated plants, then converting the severity to percent control based on the level of disease on untreated, inoculated plants.
In each case of Table I the rating scale is as follows: […]

In general, melting point refers to the temperature, or range, at which the solid turns liquid. For the compound `Cc1ccc(COc2ncc(F)c(NC(=O)c3ccccc3)n2)cc1` [Cmpd 1, N-(5-fluoro-2-(4-methylbenzyloxy)pyrimidin-4-yl)benzamide], the melting point fell in the range of 93 to 95 °C. For the same compound, the “SEPTTR 100 PPM 1DP” value in data set [1] (One-Day Protectant (1DP)) is “B (51-75)”. Also, in data set [1] (Three-Day Curative (3DC)), the “SEPTTR 100 PPM 3DC” value is “A (76-100)”.
